Target: T1, Human Factor D (Homo sapiens, UniProt P00746)
T1 construct: purified from human serum; purchased Complement Technology, Inc; host or cells: human serum (natural protein, not recombinant)
Experiment: Human Factor D Assay
Assay type: biochemical
Settings: Table 3; Human Factor D 80 nM, substrate Z-L-Lys-SBzl; read-out: (IC50 (Stars))
Method: Example 8. Human Factor D Assay
Human Factor D (purified from human serum, Complement Technology, Inc.) at 80 nM final concentration is incubated with test compound at various concentrations for 5 minutes at room temperature in 50 mM Tris, 1M NaCl, pH 7.5. A synthetic substrate Z-L-Lys-SBzl and DTNB (Ellman's reagent) are added to final concentrations of 100 μM each. Absorbance at 405 nm (A405) is recorded at 30 second intervals for 30 minutes using a microplate spectrophotometer. IC50 values are calculated by nonlinear regression of complement Factor D reaction rates as a function of test compound concentration.

T1 sequence (P00746 26-253): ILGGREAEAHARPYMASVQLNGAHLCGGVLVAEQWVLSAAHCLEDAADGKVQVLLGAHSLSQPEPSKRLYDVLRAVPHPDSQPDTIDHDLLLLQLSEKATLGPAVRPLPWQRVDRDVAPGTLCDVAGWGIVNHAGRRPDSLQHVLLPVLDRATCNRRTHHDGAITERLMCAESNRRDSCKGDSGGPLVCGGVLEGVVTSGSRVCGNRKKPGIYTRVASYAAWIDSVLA

IC50 [nM] | Compound
< 1000 | CC(=O)c1cn(CC(=O)N2C[C@H](F)C[C@H]2C(=O)NCCCc2ccccc2)c2ccc(OCS(N)(=O)=O)cc12 [Compound 136, (2S,4R)-1-(2-(3-Acetyl-5-(sulfamoylmethoxy)-1H-indol-1-yl)acetyl)-4-fluoro-N-(3-phenylpropyl)pyrrolidine-2-carboxamide]
1000 to 10000 | CC(=O)c1cn(CC(=O)N2C[C@H](F)C[C@H]2C(=O)NCCCCc2ccccc2)c2ccc(OCS(N)(=O)=O)cc12 [Compound 139, (2S,4R)-1-(2-(3-Acetyl-5-(sulfamoylmethoxy)-1H-indol-1-yl)acetyl)-4-fluoro-N-(4-phenylbutyl)pyrrolidine-2-carboxamide]
< 1000 | CC(=O)c1cn(CC(=O)N2C[C@H](F)C[C@H]2C(=O)NCc2cccc(Cl)c2F)c2ccc(OCS(=O)(=O)NC(C)(C)C)cc12 [Compound 140, (2S,4R)-1-(2-(3-Acetyl-5-((N-(tert-butyl)sulfamoyl)methoxy)-1H-indol-1-yl)acetyl)-N-(3-chloro-2-fluorobenzyl)-4-fluoropyrrolidine-2-carboxamide]
< 1000 | CC(=O)c1cn(CC(=O)N2C[C@H](F)C[C@H]2C(=O)NCc2cccc(Cl)c2F)c2ccc(OCS(N)(=O)=O)cc12 [Compound 141, (2S,4R)-1-(2-(3-Acetyl-5-(sulfamoylmethoxy)-1H-indol-1-yl)acetyl)-N-(3-chloro-2-fluorobenzyl)-4-fluoropyrrolidine-2-carboxamide]
1000 to 10000 | CC(=O)c1cn(CC(=O)N2C[C@H](F)C[C@H]2C(=O)NCc2ccccc2)c2ccc(OCP(=O)(O)O)cc12 [Compound 145, (((3-Acetyl-1-(2-((2S,4R)-2-(benzylcarbamoyl)-4-fluoropyrrolidin-1-yl)-2-oxoethyl)-1H-indol-5-yl)oxy)methyl)phosphonic acid]
> 10000 | CC(=O)c1cn(CC(=O)N2C[C@H](F)C[C@H]2C(=O)NCCCc2ccccc2)c2ccc(OCP(=O)(O)O)cc12 [Compound 149, (((3-Acetyl-1-(2-((2S,4R)-4-fluoro-2-((3-phenylpropyl)carbamoyl)pyrrolidin-1-yl)-2-oxoethyl)-1H-indol-5-yl)oxy)methyl)phosphonic acid]
< 1000 | CC(=O)c1cn(CC(=O)N2C[C@H](F)C[C@H]2C(=O)Nc2cncc(Br)n2)c2ccc(Oc3ncc(F)cn3)cc12 [Compound 164, (2S,4R)-1-(2-(3-Acetyl-5-((5-fluoropyrimidin-2-yl)oxy)-1H-indol-1-yl)acetyl)-N-(6-bromopyrazin-2-yl)-4-fluoropyrrolidine-2-carboxamide]
< 1000 | CC(=O)c1cn(CC(=O)N2[C@@H]3C[C@@H]3C[C@H]2C(=O)Nc2cncc(Br)n2)c2ccc(Oc3ncc(F)cn3)cc12 [Compound 165, (1R,3S,5R)-2-(2-(3-Acetyl-5-((5-fluoropyrimidin-2-yl)oxy)-1H-indol-1-yl)acetyl)-N-(6-bromopyrazin-2-yl)-2-azabicyclo[3.1.0]hexane-3-carboxamide]
< 1000 | CC(=O)c1cn(CC(=O)N2C[C@H](F)C[C@H]2C(=O)Nc2cncc(Br)n2)c2ccc(Oc3ncc(C)cn3)cc12 [Compound 166, (2S,4R)-1-(2-(3-Acetyl-5-((5-methylpyrimidin-2-yl)oxy)-1H-indol-1-yl)acetyl)-N-(6-bromopyrazin-2-yl)-4-fluoropyrrolidine-2-carboxamide]
< 1000 | CC(=O)c1nn(CC(=O)N2C[C@H](F)C[C@H]2C(=O)Nc2cncc(Br)n2)c2ccc(Oc3ncc(C)cn3)cc12 [Compound 167, (2S,4R)-1-(2-(3-Acetyl-5-((5-methylpyrimidin-2-yl)oxy)-1H-indazol-1-yl)acetyl)-N-(6-bromopyrazin-2-yl)-4-fluoropyrrolidine-2-carboxamide]
< 1000 | CC(=O)c1nn(CC(=O)N2C[C@H](F)C[C@H]2C(=O)Nc2cncc(Br)n2)c2ccc(Oc3nccc(C)n3)cc12 [Compound 168, (2S,4R)-1-(2-(3-Acetyl-5-((4-methylpyrimidin-2-yl)oxy)-1H-indazol-1-yl)acetyl)-N-(6-bromopyrazin-2-yl)-4-fluoropyrrolidine-2-carboxamide]
< 1000 | CC(=O)c1nn(CC(=O)N2C[C@H](F)C[C@H]2C(=O)Nc2cccc(Br)n2)c2ccc(Oc3ncc(C)cn3)cc12 [Compound 169, (2S,4R)-1-(2-(3-Acetyl-5-((5-methylpyrimidin-2-yl)oxy)-1H-indazol-1-yl)acetyl)-N-(6-bromopyridin-2-yl)-4-fluoropyrrolidine-2-carboxamide]
< 1000 | CC(=O)c1nn(CC(=O)N2[C@@H]3C[C@@H]3C[C@H]2C(=O)Nc2cncc(Br)n2)c2ccc(Oc3ncc(C)cn3)cc12 [Compound 170, (1R,3S,5R)-2-(2-(3-Acetyl-5-((5-methylpyrimidin-2-yl)oxy)-1H-indazol-1-yl)acetyl)-N-(6-bromopyrazin-2-yl)-2-azabicyclo[3.1.0]hexane-3-carboxamide]
< 1000 | CC(=O)c1nn(CC(=O)N2[C@@H]3C[C@@H]3C[C@H]2C(=O)Nc2cccc(Br)n2)c2ccc(Oc3ncc(C)cn3)cc12 [Compound 171, (1R,3S,5R)-2-(2-(3-Acetyl-5-((5-methylpyrimidin-2-yl)oxy)-1H-indazol-1-yl)acetyl)-N-(6-bromopyridin-2-yl)-2-azabicyclo[3.1.0]hexane-3-carboxamide]
< 1000 | CC(=O)c1nn(CC(=O)N2C[C@H](F)C[C@H]2C(=O)Nc2nc(Br)ccc2C)c2ccc(Oc3ncc(C)cn3)cc12 [Compound 172, (2S,4R)-1-(2-(3-Acetyl-5-((5-methylpyrimidin-2-yl)oxy)-1H-indazol-1-yl)acetyl)-N-(6-bromo-3-methylpyridin-2-yl)-4-fluoropyrrolidine-2-carboxamide]

Second part, the compound before the results:

Compound | IC50 [nM]
CC(=O)c1cn(CC(=O)N2C[C@H](F)C[C@H]2C(=O)NCCCc2ccccc2)c2ccc(OCS(=O)(=O)NC(C)(C)C)cc12 [Compound 135, (2S,4R)-1-(2-(3-Acetyl-5-((N-(tert-butyl)sulfamoyl)methoxy)-1H-indol-1-yl)acetyl)-4-fluoro-N-(3-phenylpropyl)pyrrolidine-2-carboxamide] | < 1000
CC(=O)c1cn(CC(=O)N2C[C@H](F)C[C@H]2C(=O)NCCCCc2ccccc2)c2ccc(OCS(=O)(=O)NC(C)(C)C)cc12 [Compound 138, (2S,4R)-1-(2-(3-Acetyl-5-((N-(tert-butyl)sulfamoyl)methoxy)-1H-indol-1-yl)acetyl)-4-fluoro-N-(4-phenylbutyl)pyrrolidine-2-carboxamide] | < 1000
CCOP(=O)(COc1ccc2c(c1)c(C(C)=O)cn2CC(=O)N1C[C@H](F)C[C@H]1C(=O)NCc1ccccc1)OCC [Compound 144, Diethyl (((3-acetyl-1-(2-((2S,4R)-2-(benzylcarbamoyl)-4-fluoropyrrolidin-1-yl)-2-oxoethyl)-1H-indol-5-yl)oxy)methyl)phosphonate] | < 1000
CCOP(=O)(COc1ccc2c(c1)c(C(C)=O)cn2CC(=O)N1C[C@H](F)C[C@H]1C(=O)NCCc1ccccc1)OCC [Compound 146, Diethyl (((3-acetyl-1-(2-((2S,4R)-4-fluoro-2-(phenethylcarbamoyl)pyrrolidin-1-yl)-2-oxoethyl)-1H-indol-5-yl)oxy)methyl)phosphonate] | < 1000
CC(=O)c1cn(CC(=O)N2C[C@H](F)C[C@H]2C(=O)NCCc2ccccc2)c2ccc(OCP(=O)(O)O)cc12 [Compound 147, (((3-Acetyl-1-(2-((2S,4R)-4-fluoro-2-(phenethylcarbamoyl)pyrrolidin-1-yl)-2-oxoethyl)-1H-indol-5-yl)oxy)methyl)phosphonic acid] | > 10000
CCOP(=O)(COc1ccc2c(c1)c(C(C)=O)cn2CC(=O)N1C[C@H](F)C[C@H]1C(=O)NCCCc1ccccc1)OCC [Compound 148, diethyl (((3-acetyl-1-(2-((2S,4R)-4-fluoro-2-((3-phenylpropyl)carbamoyl)pyrrolidin-1-yl)-2-oxoethyl)-1H-indol-5-yl)oxy)methyl)phosphonate] | < 1000
CCOP(=O)(COc1ccc2c(c1)c(C(C)=O)cn2CC(=O)N1C[C@H](F)C[C@H]1C(=O)NCCCCc1ccccc1)OCC [Compound 150, Diethyl (((3-acetyl-1-(2-((2S,4R)-4-fluoro-2-((4-phenylbutyl)carbamoyl)pyrrolidin-1-yl)-2-oxoethyl)-1H-indol-5-yl)oxy)methyl)phosphonate] | < 1000
CC(=O)c1cn(CC(=O)N2C[C@H](F)C[C@H]2C(=O)NCCCCc2ccccc2)c2ccc(OCP(=O)(O)O)cc12 [Compound 151, (((3-Acetyl-1-(2-((2S,4R)-4-fluoro-2-((4-phenylbutyl)carbamoyl)pyrrolidin-1-yl)-2-oxoethyl)-1H-indol-5-yl)oxy)methyl)phosphonic acid] | > 10000
CCOP(=O)(COc1ccc2c(c1)c(C(C)=O)cn2CC(=O)N1C[C@H](F)C[C@H]1CCNS(=O)(=O)c1ccccc1)OCC [Compound 158, Diethyl (((3-acetyl-1-(2-((2R,4R)-4-fluoro-2-(2-(phenylsulfonamido)ethyl)pyrrolidin-1-yl)-2-oxoethyl)-1H-indol-5-yl)oxy)methyl)phosphonate] | 1000 to 10000
CC(=O)c1cn(CC(=O)N2C[C@H](F)C[C@H]2CCNS(=O)(=O)c2ccccc2)c2ccc(OCP(=O)(O)O)cc12 [Compound 159, (((3-Acetyl-1-(2-((2R,4R)-4-fluoro-2-(2-(phenylsulfonamido)ethyl)pyrrolidin-1-yl)-2-oxoethyl)-1H-indol-5-yl)oxy)methyl)phosphonic acid] | > 10000
CCOP(=O)(COc1ccc2c(c1)c(C(C)=O)cn2CC(=O)N1CC[C@H]1C(=O)Nc1cccc(C)n1)OCC [Compound 163, Diethyl (S)-(((3-acetyl-1-(2-(2-((6-methylpyridin-2-yl)carbamoyl)azetidin-1-yl)-2-oxoethyl)-1H-indol-5-yl)oxy)methyl)phosphonate] | > 10000

From patent US10385097B2, “Ether compounds for treatment of medical disorders” (Achillion Pharmaceuticals, Inc., priority 2015, dated 2019)
